Measured values from patent US20260356804A1, “SODIUM CHANNEL BLOCKING COMPOUNDS, DERIVATIVES THEREOF, AND METHODS OF THEIR USE” (LATIGO BIOTHERAPEUTICS, INC., priority 2022, published 2026).
Like-named read-outs stand apart in the source and are kept apart here. Blank lines part the entries; values can stand above or below the compound they belong to.

Target: T1, human Nav1.8/b3 (Homo sapiens, UniProt Q9Y5Y9)
T1 construct: expressed in transfected cells; host or cells: CHO
Assay: Compound Profiling Human NaV1.8/β3 Cell Line—SyncroPatch384PE Assay (automated patch clamp, stably transfected CHO cells)
Type: cell-based
Conditions: Nav1.8/b3 CHO cells

[1] = P1 (IC50, resting state block), P1 measurement, resting state block, holding potential −120 mV, second set of compounds
[2] = P2 (IC50, inactivated state block), P2 measurement, inactivated state block, inactivation step −35 mV 10 sec, second set of compounds
[3] = P1 (IC50, resting state block), P1 measurement, resting state block, holding potential −120 mV, third set of compounds
[4] = P2 (IC50, inactivated state block), P2 measurement, inactivated state block, inactivation step −35 mV 10 sec, third set of compounds
[5] = P1 measurement, resting state block, holding potential −120 mV, third set of compounds, read-out: P1 (IC50, resting state block)
[6] = P2 measurement, inactivated state block, inactivation step −35 mV 10 sec, third set of compounds, read-out: P2 (IC50, inactivated state block)
[7] = P1 (IC50, resting state block), P1 measurement, resting state block, holding potential −120 mV, fourth set of compounds
[8] = P2 (IC50, inactivated state block), P2 measurement, inactivated state block, inactivation step −35 mV 10 sec, fourth set of compounds
[9] = P1 (IC50, resting state block), P1 measurement, resting state block, holding potential −120 mV, first set of compounds
[10] = P2 (IC50, inactivated state block), P2 measurement, inactivated state block, inactivation step −35 mV 10 sec, first set of compounds

T1 sequence (Q9Y5Y9 whole entry): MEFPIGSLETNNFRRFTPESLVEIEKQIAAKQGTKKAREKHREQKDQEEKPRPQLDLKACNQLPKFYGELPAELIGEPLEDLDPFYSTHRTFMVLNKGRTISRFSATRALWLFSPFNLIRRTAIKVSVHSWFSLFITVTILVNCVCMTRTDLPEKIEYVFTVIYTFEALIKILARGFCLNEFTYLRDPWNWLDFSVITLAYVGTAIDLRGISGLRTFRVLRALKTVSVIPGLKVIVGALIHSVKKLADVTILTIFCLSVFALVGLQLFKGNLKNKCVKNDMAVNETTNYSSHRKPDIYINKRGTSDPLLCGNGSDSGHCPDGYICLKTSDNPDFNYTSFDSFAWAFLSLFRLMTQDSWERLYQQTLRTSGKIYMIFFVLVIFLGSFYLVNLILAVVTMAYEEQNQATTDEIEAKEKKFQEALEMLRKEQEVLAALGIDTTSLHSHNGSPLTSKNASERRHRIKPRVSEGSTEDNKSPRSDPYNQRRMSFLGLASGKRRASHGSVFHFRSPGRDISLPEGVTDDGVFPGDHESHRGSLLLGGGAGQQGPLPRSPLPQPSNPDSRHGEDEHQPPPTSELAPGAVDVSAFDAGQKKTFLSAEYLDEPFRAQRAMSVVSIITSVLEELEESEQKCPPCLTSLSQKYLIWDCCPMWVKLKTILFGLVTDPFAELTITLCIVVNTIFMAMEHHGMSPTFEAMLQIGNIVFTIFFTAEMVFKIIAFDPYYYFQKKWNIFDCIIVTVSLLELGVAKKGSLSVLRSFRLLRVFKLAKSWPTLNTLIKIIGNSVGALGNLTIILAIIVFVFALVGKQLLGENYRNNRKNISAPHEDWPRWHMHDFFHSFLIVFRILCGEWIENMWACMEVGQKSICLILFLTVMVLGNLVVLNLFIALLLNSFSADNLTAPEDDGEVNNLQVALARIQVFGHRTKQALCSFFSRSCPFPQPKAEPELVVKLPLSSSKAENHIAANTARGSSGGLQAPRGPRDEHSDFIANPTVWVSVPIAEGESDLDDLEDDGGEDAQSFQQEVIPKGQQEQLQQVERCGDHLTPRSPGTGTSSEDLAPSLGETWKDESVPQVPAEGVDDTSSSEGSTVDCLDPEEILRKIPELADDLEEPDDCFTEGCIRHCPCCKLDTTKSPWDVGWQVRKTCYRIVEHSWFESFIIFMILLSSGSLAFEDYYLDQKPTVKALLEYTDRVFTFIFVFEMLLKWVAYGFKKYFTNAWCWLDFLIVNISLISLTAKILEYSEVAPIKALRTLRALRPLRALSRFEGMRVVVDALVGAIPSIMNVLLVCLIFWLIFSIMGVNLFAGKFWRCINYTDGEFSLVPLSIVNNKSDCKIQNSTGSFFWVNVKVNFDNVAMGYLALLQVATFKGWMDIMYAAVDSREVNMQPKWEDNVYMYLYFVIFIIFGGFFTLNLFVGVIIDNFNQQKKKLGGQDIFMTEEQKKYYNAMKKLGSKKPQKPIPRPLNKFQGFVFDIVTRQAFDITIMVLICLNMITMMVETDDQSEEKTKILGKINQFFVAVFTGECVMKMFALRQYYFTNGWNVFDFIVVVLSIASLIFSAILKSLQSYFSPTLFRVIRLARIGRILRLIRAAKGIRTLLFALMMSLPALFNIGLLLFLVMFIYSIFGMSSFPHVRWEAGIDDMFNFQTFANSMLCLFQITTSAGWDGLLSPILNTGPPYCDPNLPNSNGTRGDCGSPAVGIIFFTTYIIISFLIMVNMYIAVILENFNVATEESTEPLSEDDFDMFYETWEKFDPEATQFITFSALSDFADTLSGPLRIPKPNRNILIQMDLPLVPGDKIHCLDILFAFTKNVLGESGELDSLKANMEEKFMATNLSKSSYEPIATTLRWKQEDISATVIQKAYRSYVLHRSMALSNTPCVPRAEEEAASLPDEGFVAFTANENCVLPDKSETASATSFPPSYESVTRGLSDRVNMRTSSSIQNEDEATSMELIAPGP
T1 sequence (Q9NY72 23-215 partner): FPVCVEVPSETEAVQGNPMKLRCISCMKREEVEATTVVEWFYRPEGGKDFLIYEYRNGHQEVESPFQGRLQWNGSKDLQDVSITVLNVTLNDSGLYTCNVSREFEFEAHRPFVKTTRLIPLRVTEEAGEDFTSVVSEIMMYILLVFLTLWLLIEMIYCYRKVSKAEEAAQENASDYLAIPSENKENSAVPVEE

IC50 [1]: < 5 nM
IC50 [2]: < 5 nM
SMILES: Cc1nc(F)ccc1Oc1cc(C(F)(F)F)c(Cl)cc1C(=O)Nc1cccc([S@@](C)(=O)=NC(=O)C2(N)CCC2)c1 [Example 6B, (R)—N-(3-(N-(1-aminocyclobutane-1-carbonyl)-S-methylsulfonimidoyl)phenyl)-5-chloro-2-((6-fluoro-2-methylpyridin-3-yl)oxy)-4-(trifluoromethyl)benzamide]

IC50 [3]: > 200 nM
IC50 [4]: > 200 nM
SMILES: Cc1cc(C#N)ccc1Oc1cc(C(F)(F)F)nnc1C(=O)Nc1cccc(S(C)(=N)=O)c1 (stereo not drawn) [Example 39C, 4-(4-cyano-2-methylphenoxy)-N-(3-(S-methylsulfonimidoyl)phenyl)-6-(trifluoromethyl)pyridazine-3-carboxamide]

IC50 [5]: 5 to 50 nM
IC50 [6]: 5 to 50 nM
SMILES: Cc1nc(F)ccc1Oc1ncc(C(F)(F)F)c(C)c1C(=O)Nc1ccc(F)c(S(C)(=O)=O)c1 [Example 101C]

IC50 [3]: 5 to 50 nM
IC50 [4]: 5 to 50 nM
SMILES: COc1ccc(Oc2ncc(C(F)(F)F)c(C)c2C(=O)Nc2cccc([S@@](C)(=N)=O)c2)c(C)n1 [Example 116C]

IC50 [7]: < 5 nM
IC50 [8]: < 5 nM
SMILES: Cc1nc(F)ccc1Oc1ncc(C(F)(F)F)c(C)c1C(=O)Nc1cccc([S@@](C)(=O)=NC(=O)[C@@H]2CCCN2)c1 [Example 22D, N-(3-((R)—N-(L-prolyl)-S-methylsulfonimidoyl)phenyl)-2-((6-fluoro-2-methylpyridin-3-yl)oxy)-4-methyl-5-(trifluoromethyl)nicotinamide]

IC50 [7]: < 5 nM
IC50 [8]: < 5 nM
SMILES: Cc1nc(F)ccc1Oc1ncc(C(F)(F)F)c(C)c1C(=O)Nc1cccc([S@@](C)(=O)=NC(=O)[C@@H]2CCOC2)c1 [Example 10D, 2-((6-fluoro-2-methylpyridin-3-yl)oxy)-4-methyl-N-(3-((R)—S-methyl-N—((R)-tetrahydrofuran-3-carbonyl)sulfonimidoyl)phenyl)-5-(trifluoromethyl)nicotinamide]

IC50 [7]: < 5 nM
IC50 [8]: < 5 nM
SMILES: Cc1nc(F)ccc1Oc1nnc(C(F)(F)F)c(C)c1C(=O)Nc1cccc([S@@](C)(=O)=NC(=O)[C@H](C)O)c1 [Example 18D, 3-((6-fluoro-2-methylpyridin-3-yl)oxy)-N-(3-((R)—N—((S)-2-hydroxypropanoyl)-S-methylsulfonimidoyl)phenyl)-5-methyl-6-(trifluoromethyl)pyridazine-4-carboxamide]

IC50 [3]: 5 to 50 nM
IC50 [4]: 5 to 50 nM
SMILES: Cc1nc(F)ccc1Oc1ncc(C2CCC2)c(C)c1C(=O)Nc1cccc([S@](C)(=N)=O)c1 [Example 99C]

IC50 [7]: 5 to 50 nM
IC50 [8]: 5 to 50 nM
SMILES: Cc1nc(F)ccc1Oc1nnc(C(F)(F)F)c(C)c1C(=O)Nc1cccc([S@@](C)(=O)=NC(=O)CO)c1 [Example 20D, (R)-3-((6-fluoro-2-methylpyridin-3-yl)oxy)-N-(3-(N-(2-hydroxyacetyl)-S-methylsulfonimidoyl)phenyl)-5-methyl-6-(trifluoromethyl)pyridazine-4-carboxamide]

IC50 [1]: < 5 nM
IC50 [2]: < 5 nM
SMILES: Cc1nc(F)ccc1Oc1ccc(C(F)(F)F)c(C)c1C(=O)Nc1cccc([S@@](C)(=O)=NC(=O)[C@H](C)O)c1 [Example 23B]

IC50 [9]: > 200 nM
IC50 [10]: > 200 nM
SMILES: Cc1nc(F)ccc1Oc1ccc(-c2cnn(C)c2)c(C)c1C(=O)Nc1cccc([S@](C)(=N)=O)c1 [Example 7A, (R)-6-((6-fluoro-2-methylpyridin-3-yl)oxy)-2-methyl-3-(1-methyl-1H-pyrazol-4-yl)-N-(3-(S-methylsulfonimidoyl)phenyl)benzamide]

IC50 [7]: < 5 nM
IC50 [8]: < 5 nM
SMILES: CNCC(=O)N=[S@](C)(=O)c1cccc(NC(=O)c2c(Oc3ccc(F)nc3C)ncc(C(F)(F)F)c2C)c1 [Example 1D, (R)-2-((6-fluoro-2-methylpyridin-3-yl)oxy)-4-methyl-N-(3-(S-methyl-N-(methylglycyl)sulfonimidoyl)phenyl)-5-(trifluoromethyl)nicotinamide]

IC50 [7]: < 5 nM
IC50 [8]: < 5 nM
SMILES: Cc1nc(F)ccc1Oc1ncc(C(F)(F)F)c(C)c1C(=O)Nc1cccc([S@@](C)(=O)=NC(=O)C2(N)CC2)c1 [Example 5D, (R)—N-(3-(N-(1-aminocyclopropane-1-carbonyl)-S-methylsulfonimidoyl)phenyl)-2-((6-fluoro-2-methylpyridin-3-yl)oxy)-4-methyl-5-(trifluoromethyl)nicotinamide]

IC50 [5]: < 5 nM
IC50 [6]: < 5 nM
SMILES: Cc1nc(F)ccc1Oc1cnc(C(F)(F)F)c(Cl)c1C(=O)Nc1cccc([S@](C)(=N)=O)c1 [Example 45C, (R)-3-chloro-5-((6-fluoro-2-methylpyridin-3-yl)oxy)-N-(3-(S-methylsulfonimidoyl)phenyl)-2-(trifluoromethyl)isonicotinamide]

IC50 [1]: < 5 nM
IC50 [2]: < 5 nM
SMILES: Cc1nc(F)ccc1Oc1cc(C(F)(F)F)c(Cl)cc1C(=O)Nc1cccc([S@@](C)(=O)=NC(=O)CO)c1 [Example 2B, (R)-5-chloro-2-((6-fluoro-2-methylpyridin-3-yl)oxy)-N-(3-(N-(2-hydroxyacetyl)-S-methylsulfonimidoyl)phenyl)-4-(trifluoromethyl)benzamide]

IC50 [7]: < 5 nM
IC50 [8]: < 5 nM
SMILES: Cc1nc(F)ccc1Oc1nnc(C(F)(F)F)c(C)c1C(=O)Nc1cccc([S@@](C)(=O)=NC(=O)CN2CC(F)(F)C2)c1 [Example 28D, (R)—N-(3-(N-(2-(3,3-difluoroazetidin-1-yl)acetyl)-S-methylsulfonimidoyl)phenyl)-3-((6-fluoro-2-methylpyridin-3-yl)oxy)-5-methyl-6-(trifluoromethyl)pyridazine-4-carboxamide]

IC50 [1]: 5 to 50 nM
IC50 [2]: 5 to 50 nM
SMILES: Cc1nc(F)ccc1Oc1cc(C(F)(F)F)ccc1C(=O)Nc1cccc([S@@](C)(=O)=NC(=O)[C@@H](C)O)c1 [Example 13B, 2-((6-fluoro-2-methylpyridin-3-yl)oxy)-N-(3-((R)—N—((R)-2-hydroxypropanoyl)-S-methylsulfonimidoyl)phenyl)-4-(trifluoromethyl)benzamide]

IC50 [9]: < 5 nM
IC50 [10]: < 5 nM
SMILES: Cc1nc(F)ccc1Oc1cc(C(F)(F)F)c(Cl)cc1C(=O)Nc1ccnc(C(N)=O)c1 [Example 72A]

IC50 [7]: < 5 nM
IC50 [8]: < 5 nM
SMILES: Cc1nc(F)ccc1Oc1ncc(C(F)(F)F)c(C)c1C(=O)Nc1cccc([S@@](C)(=O)=NC(=O)[C@H]2CCOC2)c1 [Example 15D, 2-((6-fluoro-2-methylpyridin-3-yl)oxy)-4-methyl-N-(3-((R)—S-methyl-N—((S)-tetrahydrofuran-3-carbonyl)sulfonimidoyl)phenyl)-5-(trifluoromethyl)nicotinamide]

IC50 [3]: < 5 nM
IC50 [4]: < 5 nM
SMILES: Cc1nc(F)ccc1Oc1nnc(C(F)(F)F)c(C)c1C(=O)Nc1cccc(S(N)(=O)=O)c1 [Example 13C, 3-((6-fluoro-2-methylpyridin-3-yl)oxy)-5-methyl-N-(3-sulfamoylphenyl)-6-(trifluoromethyl)pyridazine-4-carboxamide]

IC50 [3]: 5 to 50 nM
IC50 [4]: 5 to 50 nM
SMILES: Cc1nc(F)ccc1Oc1nc(C(F)(F)F)c(C#N)c(C)c1C(=O)Nc1cccc([S@](C)(=N)=O)c1 [Example 113C]
